{"source": "paper PMC9082844", "about": "(Journal of Biomedical Science, 2022)", "key": {"LNCaP cell": {"tested_on": "LNCaP cell", "design": "method as in PMID 24971742", "conditions": "cited from earlier work"}, "KDM4B [1]": {"target": "T1, KDM4B (Homo sapiens, UniProt O94953)", "T1 sequence (O94953 1-1096)": "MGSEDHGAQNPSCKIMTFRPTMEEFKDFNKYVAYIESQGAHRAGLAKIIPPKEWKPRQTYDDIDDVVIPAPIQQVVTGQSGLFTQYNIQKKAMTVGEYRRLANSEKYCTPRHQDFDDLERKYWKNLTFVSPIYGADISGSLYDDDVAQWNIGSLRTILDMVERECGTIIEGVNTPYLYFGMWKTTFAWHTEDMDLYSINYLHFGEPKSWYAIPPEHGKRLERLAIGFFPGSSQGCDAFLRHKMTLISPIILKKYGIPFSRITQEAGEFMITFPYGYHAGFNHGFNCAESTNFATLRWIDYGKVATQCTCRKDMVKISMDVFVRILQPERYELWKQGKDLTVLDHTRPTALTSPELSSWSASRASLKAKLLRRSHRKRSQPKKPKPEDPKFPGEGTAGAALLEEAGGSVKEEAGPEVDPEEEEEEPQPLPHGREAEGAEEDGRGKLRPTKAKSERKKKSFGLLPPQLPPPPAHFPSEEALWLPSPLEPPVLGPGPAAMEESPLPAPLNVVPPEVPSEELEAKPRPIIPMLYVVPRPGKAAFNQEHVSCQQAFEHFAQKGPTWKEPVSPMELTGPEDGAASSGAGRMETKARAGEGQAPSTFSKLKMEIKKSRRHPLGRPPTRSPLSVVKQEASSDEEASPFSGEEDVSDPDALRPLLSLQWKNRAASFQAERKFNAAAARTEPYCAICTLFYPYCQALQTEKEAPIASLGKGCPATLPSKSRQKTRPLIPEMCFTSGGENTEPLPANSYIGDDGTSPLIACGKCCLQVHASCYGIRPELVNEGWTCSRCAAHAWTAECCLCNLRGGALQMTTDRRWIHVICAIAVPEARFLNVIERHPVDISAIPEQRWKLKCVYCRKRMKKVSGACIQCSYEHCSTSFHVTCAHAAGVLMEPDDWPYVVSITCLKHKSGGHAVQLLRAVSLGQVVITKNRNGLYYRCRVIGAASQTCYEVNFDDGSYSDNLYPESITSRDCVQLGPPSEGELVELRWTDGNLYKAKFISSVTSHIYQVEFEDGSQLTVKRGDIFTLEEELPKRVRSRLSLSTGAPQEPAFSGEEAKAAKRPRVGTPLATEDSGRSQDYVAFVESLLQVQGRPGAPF", "assay": "FDH-coupled demethylase assay, KDM4B", "type": "biochemical", "protocol": "All the reagents were stored at -30 °C."}, "KDM4B [2]": {"target": "T1, KDM4B", "assay": "H3 demethylation with histones as substrate, Western blot, KDM4B", "type": "biochemical", "conditions": "50 μM myricetin (legend also 100 μM inhibitor), 37 °C 30 min"}, "LNCaP cells": {"tested_on": "LNCaP cells", "assay": "MTT assay, LNCaP", "type": "cell-based", "conditions": "Homo sapiens, 72 h, 3 days, read-out: IC50, cell viability", "protocol": "(§1) Cells (3 × 10^3) were seeded in a 96-well plate 1 day before the treatment. Cell proliferation was measured by MTT colorimetric assay according to the manufacturer’s instruction (Roche, Indianapolis, IN, USA).\nThe IC50 value of each drug was determined by treating cells with the drug (0‒160 μM) for three days. For combination evaluation, a twofold serial dilution of each drug and its combination points above and below its IC50 value was used in an array format. Combination index (CI) values were calculated by CompuSyn software. The values of the combination dose–response curve, which represents drug-effect-shift analysis, were normalized to IC50 values of each single molar concentration of drugs (IC50 eq), and the plots were generated by Graphpad Prism 7.\n(§2) B H3K9me3 and H3K36me3 levels in myricetin-treated C4-2B cells for 2 days. The H3K9me3, H3K36me3, and H3 signals were detected in cell lysates by western blot analysis. M myricetin"}, "C4-2B": {"tested_on": "C4-2B", "assay": "MTT assay, C4-2B", "type": "cell-based", "conditions": "72 h, 3 days, read-out: IC50, proliferation"}, "RWPE-1": {"tested_on": "RWPE-1", "assay": "MTT assay, RWPE-1", "type": "cell-based", "conditions": "immortalized normal RWPE-1, 3 days", "protocol": "as §1, §2"}, "CWR22Rv1": {"tested_on": "CWR22Rv1", "assay": "MTT assay, CWR22Rv1", "type": "cell-based", "conditions": "3 days", "protocol": "as §1, §2"}, "C4-2B cells": {"tested_on": "C4-2B cells", "assay": "Histone methylation levels in treated C4-2B cells, western blot", "type": "cell-based", "conditions": "treated 2 days", "protocol": "Total cell lysates were obtained by lysing the cell with buffer [50 mM Tris–HCl pH7.5 (Thermo Fisher Scientific, Waltham, MA, USA), 150 mM NaCl (Honeywell International, Inc., Charlotte, NC, USA), 0.5% Triton X-100 (Sigma-Aldrich), 10% glycerol (Honeywell International, Inc.), 1 mM EDTA (Affymetrix Inc.), and cock-tail protease inhibitors] for 15 min on ice, followed by 10 min of sonication cycle (30 s on, 30 s off) on ice. The level of total histone 3 and trimethylated histone H3K9 was analyzed by western blotting using anti-histone 3 (Cell Signaling, Danvers, MA, USA) and anti-H3K9me3 (Millipore, Burlington, MA, USA).\nas §2"}, "[3]": {"conditions": "cited from earlier work"}, "JMJD2E/KDM4E": {"tested_on": "JMJD2E/KDM4E", "design": "method as in PMID 24260783, PMID 21124847", "conditions": "in vitro; cited from earlier work"}, "C4-2B xenografts": {"tested_on": "C4-2B xenografts", "assay": "C4-2B xenograft", "type": "in vivo, Balb/c nu/nu mice", "protocol": "C4-2B cells (1 × 10^6 cells) were suspended in a culture medium and mixed with Matrigel Matrix (BD, Franklin Lakes, NJ, USA). The mixtures were implanted subcutaneously into six- to eight-week-old male Balb/c nu/nu mice. […] Tumor volumes were measured for up to 3 weeks. The tumor volume was calculated using the formula: length × width × height × 0.52. Statistical analysis was conducted as described below. The animal protocols for mice experiments were approved by National Tsing Hua University Institutional Animal Care and Use Committee (approval number: NTHU-IACUC-10478) and carried out under the institutional guidelines with animal welfare standards.\nCells were treated with different concentrations of M or PLGA-M for 24 h, followed by MTT assay. B C4-2B cells (1 × 10^6) were implanted subcutaneously in the hindlimb of nude mice. […] Tumor volumes were measured for up to 3 weeks. Tumor volume was calculated using the formula (length × width × height × 0.52). Statistical significance was evaluated using Student’s t-test. C Representative IHC images of Ki67 and CD31 analysis of xenograft tumor sections from mice treated with vehicle, PLGA-M, Enza, or Enza + PLGA-M. D The proportion of Ki67 + cell was rescored in each field (400 ×) for six random fields in each group of IHC images. CD31 positive vessels in each field (100 ×) were scored for six random fields in each group. Significance was calculated using Student’s t-test. *P < 0.05; **P < 0.01; ***P < 0.001"}, "KDM4A": {"target": "T2, KDM4A (Homo sapiens, UniProt O75164)", "T2 sequence (O75164 1-1064)": "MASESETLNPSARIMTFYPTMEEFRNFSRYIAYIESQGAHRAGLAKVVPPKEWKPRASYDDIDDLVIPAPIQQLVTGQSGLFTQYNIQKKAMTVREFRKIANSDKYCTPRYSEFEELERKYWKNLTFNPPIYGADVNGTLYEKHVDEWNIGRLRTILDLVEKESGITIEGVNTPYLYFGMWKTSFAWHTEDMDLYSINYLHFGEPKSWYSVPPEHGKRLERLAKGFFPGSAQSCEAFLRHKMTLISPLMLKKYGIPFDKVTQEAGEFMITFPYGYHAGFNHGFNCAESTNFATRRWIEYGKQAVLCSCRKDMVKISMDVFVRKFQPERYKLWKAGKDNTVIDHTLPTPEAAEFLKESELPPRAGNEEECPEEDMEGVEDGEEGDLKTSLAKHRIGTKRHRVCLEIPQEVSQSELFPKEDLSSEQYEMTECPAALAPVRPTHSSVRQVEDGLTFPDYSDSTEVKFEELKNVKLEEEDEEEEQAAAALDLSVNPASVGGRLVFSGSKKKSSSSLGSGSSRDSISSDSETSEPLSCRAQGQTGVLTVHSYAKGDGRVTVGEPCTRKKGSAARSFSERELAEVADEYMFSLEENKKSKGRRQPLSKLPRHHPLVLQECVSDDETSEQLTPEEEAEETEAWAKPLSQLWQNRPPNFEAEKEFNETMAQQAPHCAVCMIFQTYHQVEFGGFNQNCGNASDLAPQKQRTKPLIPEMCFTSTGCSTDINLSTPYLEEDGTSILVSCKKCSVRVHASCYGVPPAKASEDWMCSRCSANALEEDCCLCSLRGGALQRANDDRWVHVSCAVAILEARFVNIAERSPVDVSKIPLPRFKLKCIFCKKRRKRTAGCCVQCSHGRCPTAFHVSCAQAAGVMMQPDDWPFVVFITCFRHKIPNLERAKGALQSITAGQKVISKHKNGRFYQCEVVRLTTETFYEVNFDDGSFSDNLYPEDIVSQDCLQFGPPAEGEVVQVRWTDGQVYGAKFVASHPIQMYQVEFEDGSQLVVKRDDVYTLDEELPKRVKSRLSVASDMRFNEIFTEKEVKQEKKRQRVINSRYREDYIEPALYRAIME", "assay": "FDH-coupled demethylase assay, KDM4A", "type": "biochemical", "conditions": "pyrocatechol analogue; read-out: inhibitory effect"}}, "note": "Like-named read-outs stand apart in the source and are kept apart here."}
{"molecule": "O=[N+]([O-])c1cc([N+](=O)[O-])c(/C=C/c2ccc(Cl)c(Cl)c2)cc1/C=C/c1ccc(Cl)c(Cl)c1", "note": "[NSC636819]", "values": [{"measurement": "LNCaP cell proliferation", "setting": "LNCaP cell", "value": "strongly inhibits"}]}
{"molecule": "O=c1c(O)c(-c2cc(O)c(O)c(O)c2)oc2cc(O)cc(O)c12", "note": "[Myricetin, 3,5,7-trihydroxy-2-(3,4,5-trihydroxyphenyl)-4H-chromen-4-one]", "values": [{"measurement": "Ki", "setting": "KDM4B [1]; increasing concentrations of H3K9me3 peptide, read-out: Ki, non-competitive with H3K9me3 peptide, KDM4B", "value": 1010, "unit": "nM"}, {"measurement": "Ki", "setting": "KDM4B [1]; increasing concentrations of α-KG, Lineweaver–Burk, read-out: Ki, competitive with α-KG, KDM4B", "value": 530, "unit": "nM"}, {"measurement": "demethylation of H3K9me3 or H3K36me3 by KDM4B", "setting": "KDM4B [2]", "value": "blocked"}, {"measurement": "IC50", "setting": "LNCaP cells", "value": "18500 ± 800", "unit": "nM"}, {"measurement": "IC50", "setting": "C4-2B", "value": "20600 ± 900", "unit": "nM"}, {"measurement": "effect on cell growth", "setting": "RWPE-1", "value": "essentially no effect"}, {"measurement": "proliferation", "setting": "CWR22Rv1", "value": "significantly reduced"}, {"measurement": "H3K9me3 level vs untreated cells", "setting": "C4-2B cells", "value": "higher level"}, {"measurement": "H3K36me3 signal vs untreated cells", "setting": "C4-2B cells", "value": "comparable"}, {"measurement": "bioavailability through the oral route", "setting": "[3]", "value": "poor"}]}
{"molecule": "O=c1c(O)c(-c2ccc(O)c(O)c2)oc2cc(O)cc(O)c12", "note": "[Quercetin, 2-(3,4-dihydroxyphenyl)-3,5,7-trihydroxychromen-4-one]", "values": [{"measurement": "IC50", "setting": "KDM4B [1]; FDH-coupled assay", "value": 2400, "unit": "nM"}, {"measurement": "KDM4B Relative Activity (%)", "setting": "KDM4B [1]; FDH-coupled assay, compound concentration not given", "value": 5.3, "unit": "%"}]}
{"molecule": "CN(C)CCCNC(=O)c1ccc(-c2cc(O)c3ncccc3c2)cc1", "note": "[ML324]", "values": [{"measurement": "inhibitory activity toward JMJD2E/KDM4E", "setting": "JMJD2E/KDM4E", "value": "submicromolar"}]}
{"molecule": "CNC(=O)c1ccc(N2C(=S)N(c3ccc(C#N)c(C(F)(F)F)c3)C(=O)C2(C)C)cc1F", "note": "[enzalutamide]", "values": [{"measurement": "tumor growth vs vehicle at day 13", "setting": "C4-2B xenografts; PLGA-M i.p. 20 mg/kg three times a week, Enza oral 12.5 mg/kg five times a week, p = 0.0002", "value": "significant impairment of tumor growth"}, {"measurement": "CD31 in xenografts (IHC)", "setting": "C4-2B xenografts; vs vehicle group", "value": "significantly higher level of CD31 was detected in the vehicle group"}, {"measurement": "Ki-67 expression in xenografts (IHC)", "setting": "C4-2B xenografts; vs vehicle group", "value": "significantly lower"}]}
{"molecule": "O=C(O)c1ccc(O)c(O)c1", "note": "[BPRKD063S0, 3,4-dihydroxybenzoic acid]", "values": [{"measurement": "IC50", "setting": "KDM4A", "value": 560, "unit": "nM"}]}
